# Measurements: patent publication US11981658B2, “Substituted aminopyridine compounds as EGFR inhibitors” (YUHAN CORPORATION, priority 2021, dated 2024)
# Read-outs that look alike come from different tables or passages of the source.
# How the values were obtained:
# [1] = molecular target: EGFR wildtype (WT) (Homo sapiens, UniProt P00533); assay: Biochemical EGFR kinase inhibition assay (Lance Ultra TR-FRET), wildtype
# Procedure, shortened: (§1)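 In this biochemical assay, phosphorylation after a one-hour room-temperature reaction was detected with europium-labelled anti-phosphopeptide antibody at 2 nM final concentration.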
# [2] = molecular target: EGFR Del19/C797S (Homo sapiens, UniProt P00533, C797S/DEL746-750); assay: Biochemical EGFR kinase inhibition assay (Lance Ultra TR-FRET), double mutant del19/C797S
# Procedure, shortened: as §1
# [3] = molecular target: EGFR L858R/C797S (Homo sapiens, UniProt P00533, C797S/L858R); assay: Biochemical EGFR kinase inhibition assay (Lance Ultra TR-FRET), double mutant L858R/C797S
# Procedure, shortened: as §1
# [4] = molecular target: EGFR L858R/T790M/C797S (Homo sapiens, UniProt P00533, C797S/L858R/T790M); assay: Biochemical EGFR kinase inhibition assay (Lance Ultra TR-FRET), triple mutant L858R/T790M/C797S
# Procedure, shortened: as §1
# [5] = molecular target: EGFR Del19/T790M/C797S (Homo sapiens, UniProt P00533, C797S/DEL746-750/T790M); assay: Biochemical EGFR kinase inhibition assay (Lance Ultra TR-FRET), triple mutant del19/T790M/C797S
# Procedure, shortened: as §1
# [6] = Km ATP, read-out: IC50 WT (nM) Km ATP
# [7] = IC50 Del19/C797S (nM), 100 μM ATP
# [8] = Km ATP, read-out: IC50 Del19/C797S (nM) Km ATP
# [9] = IC50 L858R/C797S (nM), 100 μM ATP
# [10] = Km ATP, read-out: IC50 L858R/C797S (nM) Km ATP
# [11] = IC50 L858R/T790M/C797S (nM), 100 μM ATP
# [12] = Km ATP, read-out: IC50 L858R/T790M/C797S (nM) Km ATP
# [13] = IC50 Del19/T790M/C797S (nM), 100 μM ATP
# [14] = Km ATP, read-out: IC50 Del19/T790M/C797S (nM) Km ATP
# [15] = ATP at Km, read-out: IC50 WT (nM), Km ATP
# [16] = ATP at Km, read-out: IC50 Del19/C797S (nM), Km ATP
# [17] = ATP at Km, read-out: IC50 L858R/C797S (nM), Km ATP
# [18] = ATP at Km, read-out: IC50 L858R/T790M/C797S (nM), Km ATP
# [19] = ATP at Km, read-out: IC50 Del19/T790M/C797S (nM), Km ATP
# [20] = Km ATP, read-out: IC50 WT (nM), Km ATP
# [21] = Km ATP, read-out: IC50 Del19/C797S (nM), Km ATP
# [22] = Km ATP, read-out: IC50 L858R/C797S (nM), Km ATP
# [23] = Km ATP, read-out: IC50 L858R/T790M/C797S (nM), Km ATP
# [24] = Km ATP, read-out: IC50 Del19/T790M/C797S (nM), Km ATP
# EGFR L858R/C797S, sequence (P00533 25-1210 C797S/L858R): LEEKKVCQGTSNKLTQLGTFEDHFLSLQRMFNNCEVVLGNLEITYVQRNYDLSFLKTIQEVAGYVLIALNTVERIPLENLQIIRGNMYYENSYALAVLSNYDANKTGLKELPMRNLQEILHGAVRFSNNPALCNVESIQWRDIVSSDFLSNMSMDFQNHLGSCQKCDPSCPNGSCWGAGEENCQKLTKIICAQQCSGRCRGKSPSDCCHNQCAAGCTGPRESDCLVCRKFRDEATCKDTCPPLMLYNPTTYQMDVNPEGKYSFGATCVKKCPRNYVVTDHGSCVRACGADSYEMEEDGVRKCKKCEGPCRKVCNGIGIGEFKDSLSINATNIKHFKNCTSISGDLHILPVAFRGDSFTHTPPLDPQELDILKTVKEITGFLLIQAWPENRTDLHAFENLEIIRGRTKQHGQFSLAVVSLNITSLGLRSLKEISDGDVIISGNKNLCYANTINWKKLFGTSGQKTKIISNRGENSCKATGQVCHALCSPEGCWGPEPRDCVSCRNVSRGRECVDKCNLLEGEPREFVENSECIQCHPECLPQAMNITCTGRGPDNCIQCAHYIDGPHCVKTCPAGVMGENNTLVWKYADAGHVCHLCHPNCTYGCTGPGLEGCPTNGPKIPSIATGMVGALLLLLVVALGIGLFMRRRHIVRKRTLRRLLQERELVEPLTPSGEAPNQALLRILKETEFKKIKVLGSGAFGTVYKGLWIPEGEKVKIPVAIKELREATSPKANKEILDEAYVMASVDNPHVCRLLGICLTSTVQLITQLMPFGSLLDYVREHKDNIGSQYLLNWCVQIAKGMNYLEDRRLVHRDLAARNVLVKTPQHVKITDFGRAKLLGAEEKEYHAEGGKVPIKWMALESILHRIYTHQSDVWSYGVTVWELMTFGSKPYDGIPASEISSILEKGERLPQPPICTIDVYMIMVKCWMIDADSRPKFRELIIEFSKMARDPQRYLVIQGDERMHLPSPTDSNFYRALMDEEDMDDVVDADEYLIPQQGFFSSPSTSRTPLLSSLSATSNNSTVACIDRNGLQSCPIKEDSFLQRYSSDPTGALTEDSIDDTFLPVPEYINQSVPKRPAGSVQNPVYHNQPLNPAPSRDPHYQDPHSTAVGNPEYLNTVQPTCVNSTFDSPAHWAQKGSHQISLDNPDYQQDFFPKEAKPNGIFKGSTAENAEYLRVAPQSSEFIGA
# EGFR L858R/T790M/C797S, sequence (P00533 25-1210 T790M/C797S/L858R): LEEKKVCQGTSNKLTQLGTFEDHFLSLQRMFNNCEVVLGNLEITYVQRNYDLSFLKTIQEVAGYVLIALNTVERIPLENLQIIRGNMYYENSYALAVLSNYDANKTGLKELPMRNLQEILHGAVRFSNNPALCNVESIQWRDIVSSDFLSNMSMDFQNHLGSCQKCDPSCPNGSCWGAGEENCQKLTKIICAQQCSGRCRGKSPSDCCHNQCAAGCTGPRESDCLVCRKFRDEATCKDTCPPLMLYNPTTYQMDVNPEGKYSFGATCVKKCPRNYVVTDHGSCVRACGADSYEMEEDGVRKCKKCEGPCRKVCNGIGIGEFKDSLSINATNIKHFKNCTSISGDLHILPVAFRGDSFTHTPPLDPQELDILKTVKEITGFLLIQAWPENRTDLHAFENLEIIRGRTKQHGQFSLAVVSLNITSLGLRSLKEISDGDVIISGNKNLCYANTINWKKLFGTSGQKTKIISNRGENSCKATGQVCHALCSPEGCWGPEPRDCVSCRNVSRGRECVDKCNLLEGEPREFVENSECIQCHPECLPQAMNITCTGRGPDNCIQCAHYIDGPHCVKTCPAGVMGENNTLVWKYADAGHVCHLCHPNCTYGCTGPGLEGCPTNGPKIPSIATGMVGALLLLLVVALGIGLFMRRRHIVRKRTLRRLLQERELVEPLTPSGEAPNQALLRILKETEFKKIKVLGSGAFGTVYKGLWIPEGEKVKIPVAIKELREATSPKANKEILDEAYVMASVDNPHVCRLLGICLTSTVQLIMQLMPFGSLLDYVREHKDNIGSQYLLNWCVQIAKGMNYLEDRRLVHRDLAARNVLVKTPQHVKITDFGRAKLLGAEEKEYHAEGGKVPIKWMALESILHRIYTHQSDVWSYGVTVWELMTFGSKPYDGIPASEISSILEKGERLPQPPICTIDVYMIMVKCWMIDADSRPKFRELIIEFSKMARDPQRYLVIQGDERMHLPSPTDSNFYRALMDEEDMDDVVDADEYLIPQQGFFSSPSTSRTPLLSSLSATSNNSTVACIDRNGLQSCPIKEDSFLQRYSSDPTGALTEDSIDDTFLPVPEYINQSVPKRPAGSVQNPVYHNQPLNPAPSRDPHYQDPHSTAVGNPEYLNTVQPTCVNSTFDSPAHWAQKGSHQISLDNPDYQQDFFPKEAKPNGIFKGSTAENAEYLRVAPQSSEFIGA
# EGFR Del19/T790M/C797S, sequence (P00533 with tags, fused parts or gaps DEL746-750/T790M/C797S): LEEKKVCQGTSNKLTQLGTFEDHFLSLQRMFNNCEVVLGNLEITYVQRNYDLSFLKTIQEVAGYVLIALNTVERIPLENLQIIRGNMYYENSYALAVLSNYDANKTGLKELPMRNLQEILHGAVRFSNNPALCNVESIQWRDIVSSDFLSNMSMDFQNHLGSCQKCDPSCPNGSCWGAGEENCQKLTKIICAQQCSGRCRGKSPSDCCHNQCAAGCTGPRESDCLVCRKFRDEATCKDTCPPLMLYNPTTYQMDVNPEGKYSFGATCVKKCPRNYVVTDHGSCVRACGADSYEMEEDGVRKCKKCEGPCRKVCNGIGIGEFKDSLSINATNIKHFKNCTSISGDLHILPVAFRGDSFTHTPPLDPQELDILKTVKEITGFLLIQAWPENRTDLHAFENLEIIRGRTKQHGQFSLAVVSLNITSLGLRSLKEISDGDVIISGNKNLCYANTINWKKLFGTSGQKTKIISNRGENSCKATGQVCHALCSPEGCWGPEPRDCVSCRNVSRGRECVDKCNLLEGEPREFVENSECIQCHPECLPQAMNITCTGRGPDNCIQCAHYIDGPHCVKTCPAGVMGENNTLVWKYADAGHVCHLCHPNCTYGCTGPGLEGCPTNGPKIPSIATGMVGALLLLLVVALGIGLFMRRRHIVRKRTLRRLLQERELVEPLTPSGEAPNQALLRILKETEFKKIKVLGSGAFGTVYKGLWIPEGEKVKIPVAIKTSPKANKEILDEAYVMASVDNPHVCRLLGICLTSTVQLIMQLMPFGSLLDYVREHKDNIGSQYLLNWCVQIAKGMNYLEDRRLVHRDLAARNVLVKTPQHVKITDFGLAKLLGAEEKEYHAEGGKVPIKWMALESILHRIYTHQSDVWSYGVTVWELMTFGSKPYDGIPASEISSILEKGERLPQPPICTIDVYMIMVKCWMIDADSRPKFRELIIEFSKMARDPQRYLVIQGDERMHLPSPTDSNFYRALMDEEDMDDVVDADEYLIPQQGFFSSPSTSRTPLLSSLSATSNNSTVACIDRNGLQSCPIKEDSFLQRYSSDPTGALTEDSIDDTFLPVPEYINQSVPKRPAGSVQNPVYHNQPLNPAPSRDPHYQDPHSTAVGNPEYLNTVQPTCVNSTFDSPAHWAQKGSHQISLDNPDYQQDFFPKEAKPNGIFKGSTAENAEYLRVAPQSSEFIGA
# EGFR Del19/C797S, sequence (P00533 with tags, fused parts or gaps DEL746-750/C797S): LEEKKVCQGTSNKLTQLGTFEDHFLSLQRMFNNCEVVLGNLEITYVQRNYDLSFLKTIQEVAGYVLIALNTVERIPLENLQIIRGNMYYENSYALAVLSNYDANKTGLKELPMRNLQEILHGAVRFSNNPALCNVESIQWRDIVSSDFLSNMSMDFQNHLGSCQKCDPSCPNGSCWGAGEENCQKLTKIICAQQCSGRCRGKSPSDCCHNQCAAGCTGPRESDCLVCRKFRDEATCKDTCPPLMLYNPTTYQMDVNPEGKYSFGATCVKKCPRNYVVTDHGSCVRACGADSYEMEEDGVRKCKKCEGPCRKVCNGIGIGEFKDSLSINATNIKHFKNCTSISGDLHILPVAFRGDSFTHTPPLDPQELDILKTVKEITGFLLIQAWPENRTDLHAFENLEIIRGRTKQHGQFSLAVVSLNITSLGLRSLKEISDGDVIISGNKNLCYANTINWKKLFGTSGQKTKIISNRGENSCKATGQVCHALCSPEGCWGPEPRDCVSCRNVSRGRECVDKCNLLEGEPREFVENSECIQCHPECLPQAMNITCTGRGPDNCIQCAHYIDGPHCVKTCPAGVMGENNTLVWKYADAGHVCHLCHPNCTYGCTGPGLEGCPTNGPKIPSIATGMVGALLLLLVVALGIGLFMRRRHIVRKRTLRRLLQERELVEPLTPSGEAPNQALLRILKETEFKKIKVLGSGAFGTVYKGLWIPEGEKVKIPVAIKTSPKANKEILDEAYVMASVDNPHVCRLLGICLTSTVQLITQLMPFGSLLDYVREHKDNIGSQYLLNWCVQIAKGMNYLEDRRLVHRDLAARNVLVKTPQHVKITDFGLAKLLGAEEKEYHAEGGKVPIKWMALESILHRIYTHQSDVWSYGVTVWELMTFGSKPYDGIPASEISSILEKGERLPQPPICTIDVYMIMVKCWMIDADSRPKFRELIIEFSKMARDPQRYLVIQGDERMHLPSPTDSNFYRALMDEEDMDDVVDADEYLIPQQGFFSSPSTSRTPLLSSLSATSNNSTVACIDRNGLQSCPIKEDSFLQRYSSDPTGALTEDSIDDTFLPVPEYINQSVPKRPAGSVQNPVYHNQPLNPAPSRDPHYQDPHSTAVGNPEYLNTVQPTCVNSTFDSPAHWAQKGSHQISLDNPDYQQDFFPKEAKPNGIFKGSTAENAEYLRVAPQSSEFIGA
Structure (SMILES),"IC50 ([1]; IC50 WT (nM), 100 μM ATP)","IC50 [1, 6]","IC50 [2, 7]","IC50 [2, 8]","IC50 [3, 9]","IC50 [3, 10]","IC50 [4, 11]","IC50 [4, 12]","IC50 [5, 13]","IC50 [5, 14]","IC50 [1, 15]","IC50 [2, 16]","IC50 [3, 17]","IC50 [4, 18]","IC50 [5, 19]","IC50 [1, 20]","IC50 [2, 21]","IC50 [3, 22]","IC50 [4, 23]","IC50 [5, 24]"
"CN(C)C[C@@H]1CCCN(c2cc(Nc3ccnc(-c4cnn(S(=O)(=O)C5CC5)c4)n3)ncc2C#Cc2cnn(CCF)c2)C1 [Example 385, (S)-2-(1-(Cyclopropylsulfonyl)-1H-pyrazol-4-yl)-N-(4-(3-((dimethylamino)methyl)piperidin-1-yl)-5-((1-(2-fluoroethyl)-1H-pyrazol-4-yl)ethynyl)pyridin-2-yl)pyrimidin-4-amine]",> 10000 nM,–,11.2 nM,–,37.6 nM,–,2.1 nM,–,0.7 nM,–,–,–,–,–,–,–,–,–,–,–
"CC(C)CCNC1CCN(c2cc(Nc3ccnc(-c4cnn(S(=O)(=O)C5CC5)c4)n3)ncc2C#Cc2cnn(C)c2)CC1 [Example 125, 2-(1-(Cyclopropylsulfonyl)-1H-pyrazol-4-yl)-N-(4-(4-(isopentylamino)piperidin-1-yl)-5-((1-methyl-1H-pyrazol-4-yl)ethynyl)pyridin-2-yl)pyrimidin-4-amine]",> 10000 nM,–,34.2 nM,–,330 nM,–,5.6 nM,–,5.6 nM,–,–,–,–,–,–,–,–,–,–,–
"O=S(=O)(C1CC1)n1cc(-c2nccc(Nc3cc(N[C@H]4CC[C@@H](O)CC4)c(C#Cc4cnn(C(F)(F)F)c4)cn3)n2)cn1 [Example 102, (1s,4s)-4-((2-((2-(1-(Cyclopropylsulfonyl)-1H-pyrazol-4-yl)pyrimidin-4-yl)amino)-5-((1-(trifluoromethyl)-1H-pyrazol-4-yl)ethynyl)pyridin-4-yl)amino)cyclohexan-1-ol]",> 10000 nM,186 nM,26.6 nM,13.9 nM,1030 nM,15.7 nM,7.6 nM,2.1 nM,2.7 nM,2.8 nM,–,–,–,–,–,–,–,–,–,–
"O=S(=O)(C1CC1)n1cc(-c2nccc(Nc3cc(N[C@H]4CC[C@@H](O)CC4)c(C#Cc4ncc(CN5CCOCC5)cn4)cn3)n2)cn1 [Example 194, (1s,4s)-4-((2-((2-(1-(Cyclopropylsulfonyl)-1H-pyrazol-4-yl)pyrimidin-4-yl)amino)-5-((5-(morpholinomethyl)pyrimidin-2-yl)ethynyl)pyridin-4-yl)amino)cyclohexan-1-ol]",> 10000 nM,–,3.3 nM,–,169 nM,–,0.7 nM,–,0.5 nM,–,26.1 nM,2.2 nM,3.4 nM,0.2 nM,0.5 nM,–,–,–,–,–
"CC(C)NC1CCN(c2cc(Nc3ccnc(-c4cnn(S(=O)(=O)C5CC5)c4)n3)ncc2C#Cc2cnn(C)c2)CC1 [Example 64, 2-(1-(Cyclopropylsulfonyl)-1H-pyrazol-4-yl)-N-(4-(4-(isopropylamino)piperidin-1-yl)-5-((1-methyl-1H-pyrazol-4-yl)ethynyl)pyridin-2-yl)pyrimidin-4-amine]",> 10000 nM,–,88.3 nM,–,306 nM,–,2 nM,–,1 nM,–,–,–,–,–,–,–,–,–,–,–
"C[C@H](CCO)Nc1cc(Nc2ccnc(-c3cnn(S(=O)(=O)C4CC4)c3)n2)ncc1C#Cc1cnn(C)c1 [Example 4, (R)-3-((2-((2-(1-(Cyclopropylsulfonyl)-1H-pyrazol-4-yl)pyrimidin-4-yl)amino)-5-((1-methyl-1H-pyrazol-4-yl)ethynyl)pyridin-4-yl)amino)butan-1-ol]",> 10000 nM,–,38.6 nM,–,103 nM,–,12.6 nM,–,1.1 nM,–,–,–,–,–,–,–,–,–,–,–
"O=S(=O)(C1CC1)n1cc(-c2nccc(Nc3cc(N[C@H]4CCC[C@H](O)C4)c(C#Cc4cnn(CC(F)(F)F)c4)cn3)n2)cn1 [Example 341, (1S,3S)-3-((2-((2-(1-(Cyclopropylsulfonyl)-1H-pyrazol-4-yl)pyrimidin-4-yl)amino)-5-((1-(2,2,2-trifluoroethyl)-1H-pyrazol-4-yl)ethynyl)pyridin-4-yl)amino)cyclohexan-1-ol]",> 10000 nM,–,34.2 nM,–,128 nM,–,4 nM,–,3.1 nM,–,–,–,–,–,–,163 nM,21.4 nM,42.4 nM,0.9 nM,2.5 nM
"C[C@]1(O)CCCN(c2cc(Nc3ccnc(-c4cnn(S(=O)(=O)C5CC5)c4)n3)ncc2C#Cc2cnn(CCF)c2)C1 [Example 447, (S)-1-(2-((2-(1-(Cyclopropylsulfonyl)-1H-pyrazol-4-yl)pyrimidin-4-yl)amino)-5-((1-(2-fluoroethyl)-1H-pyrazol-4-yl)ethynyl)pyridin-4-yl)-3-methylpiperidin-3-ol]",> 10000 nM,–,2.1 nM,–,59.8 nM,–,0.5 nM,–,0.4 nM,–,–,–,–,–,–,16.9 nM,1.5 nM,3.5 nM,0.2 nM,0.3 nM

# Continued, values first:
"IC50 ([1]; IC50 WT (nM), 100 μM ATP)","IC50 [1, 6]","IC50 [2, 7]","IC50 [2, 8]","IC50 [3, 9]","IC50 [3, 10]","IC50 [4, 11]","IC50 [4, 12]","IC50 [5, 13]","IC50 [5, 14]","IC50 [1, 15]","IC50 [2, 16]","IC50 [3, 17]","IC50 [4, 18]","IC50 [5, 19]","IC50 [1, 20]","IC50 [2, 21]","IC50 [3, 22]","IC50 [4, 23]","IC50 [5, 24]",Structure (SMILES)
> 10000 nM,19.6 nM,8.1 nM,5.4 nM,15.6 nM,2.9 nM,2.3 nM,0.9 nM,1.2 nM,0.9 nM,–,–,–,–,–,–,–,–,–,–,"CC(=O)N1CCC(n2cc(C#Cc3cnc(Nc4ccnc(-c5cnn(S(=O)(=O)C6CC6)c5)n4)cc3N3CCCC(CO)C3)cn2)CC1 (stereo not shown) [Example 115, 1-(4-(4-((6-((2-(1-(Cyclopropylsulfonyl)-1H-pyrazol-4-yl)pyrimidin-4-yl)amino)-4-(3-(hydroxymethyl)piperidin-1-yl)pyridin-3-yl)ethynyl)-1H-pyrazol-1-yl)piperidin-1-yl)ethan-1-one]"
1580 nM,5.4 nM,1.4 nM,0.9 nM,8.2 nM,0.9 nM,0.4 nM,0.1 nM,0.4 nM,0.4 nM,–,–,–,–,–,–,–,–,–,–,"CC(=O)N1CCC(n2cc(C#Cc3cnc(Nc4ccnc(-c5cnn(S(=O)(=O)C6CC6)c5)n4)cc3N3CCC(NCCN(C)C)CC3)cn2)CC1 [Example 139, 1-(4-(4-((6-((2-(1-(Cyclopropylsulfonyl)-1H-pyrazol-4-yl)pyrimidin-4-yl)amino)-4-(4-((2-(dimethylamino)ethyl)amino)piperidin-1-yl)pyridin-3-yl)ethynyl)-1H-pyrazol-1-yl)piperidin-1-yl)ethan-1-one]"
3010 nM,–,0.6 nM,–,11.9 nM,–,0.5 nM,–,0.4 nM,–,–,–,–,–,–,3.9 nM,0.3 nM,0.8 nM,0.4 nM,0.7 nM,"CC1(CO)CCN(c2cc(Nc3ccnc(-c4cnn(S(=O)(=O)C5CC5)c4)n3)ncc2C#CC2CCN(S(C)(=O)=O)C2)CC1 (stereo not shown) [Example 401, (1-(2-((2-(1-(Cyclopropylsulfonyl)-1H-pyrazol-4-yl)pyrimidin-4-yl)amino)-5-((1-(methylsulfonyl)pyrrolidin-3-yl)ethynyl)pyridin-4-yl)-4-methylpiperidin-4-yl)methanol]"
5980 nM,–,3.6 nM,–,50.8 nM,–,0.6 nM,–,0.5 nM,–,25.1 nM,2.1 nM,2.5 nM,0.2 nM,0.4 nM,–,–,–,–,–,"O=S(=O)(C1CC1)n1cc(-c2nccc(Nc3cc(NC4CCC(O)CC4)c(C#CC4CCOC4)cn3)n2)cn1 (stereo not shown) [Example 198, (1s,4s)-4-((2-((2-(1-(Cyclopropylsulfonyl)-1H-pyrazol-4-yl)pyrimidin-4-yl)amino)-5-((tetrahydrofuran-3-yl)ethynyl)pyridin-4-yl)amino)cyclohexan-1-ol]"
